# According to PubChem BioAssay AID1259407 (Chemical Carcinogenesis Research Information System (CCRIS), 2018):
# Activity calls are given as the source filed them. The rule behind the calls is not given here.
# Tested on: CCRIS mutagenicity, Ames/micronucleus/aberration tests
# Experiment: CCRIS mutagenicity studies
compound,measurement,setting,value
COc1ccc(N)cc1,mutagenic call,"Test System: AMES SALMONELLA TYPHIMURIUM, Strain/Indicator: TA1535, Metabolic Activation: RAT, LIVER, S-9, Method: STANDARD PLATE",inactive; negative
same,mutagenic call,"Test System: AMES SALMONELLA TYPHIMURIUM, Strain/Indicator: TA1537, Metabolic Activation: HAMSTER, LIVER, S-9, AROCLOR 1254, Method: STANDARD PLATE",inactive; negative
same,mutagenic call,"Test System: AMES SALMONELLA TYPHIMURIUM, Strain/Indicator: TA1537, Metabolic Activation: HAMSTER, LIVER, S-9, Method: STANDARD PLATE",inactive; negative
same,mutagenic call,"Test System: AMES SALMONELLA TYPHIMURIUM, Strain/Indicator: TA1537, Metabolic Activation: MOUSE, LIVER, S-9, AROCLOR 1254, Method: STANDARD PLATE",inactive; negative
same,mutagenic call,"Test System: AMES SALMONELLA TYPHIMURIUM, Strain/Indicator: TA1537, Metabolic Activation: NONE, Method: PREINCUBATION",inactive; negative
same,mutagenic call,"Test System: AMES SALMONELLA TYPHIMURIUM, Strain/Indicator: TA1537, Metabolic Activation: NONE, Method: STANDARD PLATE",inactive; negative
same,mutagenic call,"Test System: AMES SALMONELLA TYPHIMURIUM, Strain/Indicator: TA1537, Metabolic Activation: RAT LIVER S-9, PHENOBARBITAL AND BETA-NAPHTHOFLAVONE, Method: PREINCUBATION",inactive; negative
same,mutagenic call,"Test System: AMES SALMONELLA TYPHIMURIUM, Strain/Indicator: TA1537, Metabolic Activation: RAT, LIVER, S-9, AROCLOR 1254, Method: STANDARD PLATE",inactive; negative
same,mutagenic call,"Test System: AMES SALMONELLA TYPHIMURIUM, Strain/Indicator: TA1537, Metabolic Activation: RAT, LIVER, S-9, Method: STANDARD PLATE",inactive; negative
same,mutagenic call,"Test System: AMES SALMONELLA TYPHIMURIUM, Strain/Indicator: TA1538, Metabolic Activation: HAMSTER, LIVER, S-9, AROCLOR 1254, Method: STANDARD PLATE",inactive; negative
same,mutagenic call,"Test System: AMES SALMONELLA TYPHIMURIUM, Strain/Indicator: TA1538, Metabolic Activation: HAMSTER, LIVER, S-9, Method: STANDARD PLATE",inactive; negative
same,mutagenic call,"Test System: AMES SALMONELLA TYPHIMURIUM, Strain/Indicator: TA1538, Metabolic Activation: MOUSE, LIVER, S-9, AROCLOR 1254, Method: STANDARD PLATE",inactive; negative
same,mutagenic call,"Test System: AMES SALMONELLA TYPHIMURIUM, Strain/Indicator: TA1538, Metabolic Activation: MOUSE, LIVER, S-9, Method: STANDARD PLATE",inactive; negative
same,mutagenic call,"Test System: AMES SALMONELLA TYPHIMURIUM, Strain/Indicator: TA1538, Metabolic Activation: NONE, Method: STANDARD PLATE",inactive; negative
same,mutagenic call,"Test System: AMES SALMONELLA TYPHIMURIUM, Strain/Indicator: TA1538, Metabolic Activation: RAT, LIVER, S-9, AROCLOR 1254, Method: STANDARD PLATE",inactive; negative
same,mutagenic call,"Test System: AMES SALMONELLA TYPHIMURIUM, Strain/Indicator: TA1538, Metabolic Activation: RAT, LIVER, S-9, Method: STANDARD PLATE",inactive; negative
same,mutagenic call,"Test System: AMES SALMONELLA TYPHIMURIUM, Strain/Indicator: TA2638, Metabolic Activation: NONE, Method: STANDARD PLATE",inactive; negative
same,mutagenic call,"Test System: AMES SALMONELLA TYPHIMURIUM, Strain/Indicator: YG1029, Metabolic Activation: HAMSTER, LIVER, S-9, Method: PREINCUBATION",active; positive
same,mutagenic call,"Test System: AMES SALMONELLA TYPHIMURIUM, Strain/Indicator: YG1029, Metabolic Activation: NONE, Method: PREINCUBATION",active; positive
same,mutagenic call,"Test System: AMES SALMONELLA TYPHIMURIUM, Strain/Indicator: YG1029, Metabolic Activation: RAT, SEMINAL VESICLE, MICROSOMES, Method: PREINCUBATION",active; positive
same,mutagenic call,"Test System: E. COLI, Strain/Indicator: WP2 (PKM101), Metabolic Activation: NONE, Method: STANDARD PLATE",inactive; negative
same,mutagenic call,"Test System: E. COLI, Strain/Indicator: WP2 UVRA (PKM101), Metabolic Activation: NONE, Method: STANDARD PLATE",active; positive
same,mutagenic call,"Test System: E. COLI, Strain/Indicator: WP2 UVRA, Metabolic Activation: HAMSTER, LIVER, S-9, AROCLOR 1254, Method: STANDARD PLATE",inactive; negative
same,mutagenic call,"Test System: E. COLI, Strain/Indicator: WP2 UVRA, Metabolic Activation: HAMSTER, LIVER, S-9, Method: STANDARD PLATE",inactive; negative
same,mutagenic call,"Test System: E. COLI, Strain/Indicator: WP2 UVRA, Metabolic Activation: MOUSE, LIVER, S-9, AROCLOR 1254, Method: STANDARD PLATE",inactive; negative
same,mutagenic call,"Test System: E. COLI, Strain/Indicator: WP2 UVRA, Metabolic Activation: MOUSE, LIVER, S-9, Method: STANDARD PLATE",inactive; negative
same,mutagenic call,"Test System: E. COLI, Strain/Indicator: WP2 UVRA, Metabolic Activation: NONE, Method: STANDARD PLATE",inactive; negative
same,mutagenic call,"Test System: E. COLI, Strain/Indicator: WP2 UVRA, Metabolic Activation: RAT, LIVER, S-9, AROCLOR 1254, Method: STANDARD PLATE",inactive; negative
same,mutagenic call,"Test System: E. COLI, Strain/Indicator: WP2 UVRA, Metabolic Activation: RAT, LIVER, S-9, Method: STANDARD PLATE",inactive; negative
same,mutagenic call,"Test System: E.COLI, Strain/Indicator: WP2UVRA/PKM101, Metabolic Activation: RAT LIVER S-9, PHENOBARBITAL AND BETA-NAPHTHOFLAVONE, Method: PREINCUBATION",inactive; negative
same,mutagenic call,"Test System: E.COLI, Strain/Indicator: WP2UVRA, Metabolic Activation: NONE, Method: PREINCUBATION",inactive; negative
same,mutagenic call,"Test System: MOUSE LYMPHOMA, Strain/Indicator: L5178Y (TK+/TK-), Metabolic Activation: NONE, Method: SUSPENSION/PLATE",active; positive
same,mutagenic call,"Test System: MOUSE LYMPHOMA, Strain/Indicator: L5178Y (TK+/TK-), Metabolic Activation: RAT, LIVER, S-9, AROCLOR 1254, Method: SUSPENSION/PLATE",active; positive
